Values of other authors in patent US20100104547A1, “TOPICAL COMPOSITION FOR THE TREATMENT OF ALLERGENIC EFFECTS” (priority 2005, published 2010).

What was measured:
[1] = topical application
[2] = mice, bee venom intradermal; test substance by intradermal injection or topical application

Molecule | reducing the itch associated with mosquito and black fly bites [1] | inhibition of lesion development [2]
pancreatin | effective | –
subtilisin | effective | –
papain (protein, UniProt P00784 134-345, looked up, proteolytic enzyme, commonly in the form of meat tenderizer) Papain: IPEYVDWRQKGAVTPVKNQGSCGSCWAFSAVVTIEGIIKIRTGNLNEYSEQELLDCDRRSYGCNGGYPWSALQLVAQYGIHYRNTYPYEGVQRYCRSREKGPYAAKTDGVRQVQPYNEGALLYSIANQPVSVVLEAAGKDFQLYRGGIFVGPCGNKVDHAVAAVGYGPNYILIKNSWGTGWGENGYIRIKRGTGNSYGVCGLYTSSFYPVKN | effective | no marked inhibition
